Source: patent publication US20250197799A1, “CELLS DERIVED FROM POLYPEDILUM VANDERPLANKI AND ODOR SENSOR EQUIPPED THEREWITH” (University of Maryland, College Park, priority 2022, published 2025)

Key:
Orco = target: T1, Orco (Drosophila melanogaster, UniProt Q9VNB5); assay: Exogenous membrane protein function after drying-rehydration, Orco stable expression cell line; type: cell-based; details: 1 hour after drying and rehydration
T1 construct: remnant residues; expressed in transfected cells; host or cells: Pv11 cells (Polypedilum vanderplanki), knock-in at the Pv.00443 locus downstream of the 121 promoter, single-cell sorting
T1 sequence (Q9VNB5 1-486): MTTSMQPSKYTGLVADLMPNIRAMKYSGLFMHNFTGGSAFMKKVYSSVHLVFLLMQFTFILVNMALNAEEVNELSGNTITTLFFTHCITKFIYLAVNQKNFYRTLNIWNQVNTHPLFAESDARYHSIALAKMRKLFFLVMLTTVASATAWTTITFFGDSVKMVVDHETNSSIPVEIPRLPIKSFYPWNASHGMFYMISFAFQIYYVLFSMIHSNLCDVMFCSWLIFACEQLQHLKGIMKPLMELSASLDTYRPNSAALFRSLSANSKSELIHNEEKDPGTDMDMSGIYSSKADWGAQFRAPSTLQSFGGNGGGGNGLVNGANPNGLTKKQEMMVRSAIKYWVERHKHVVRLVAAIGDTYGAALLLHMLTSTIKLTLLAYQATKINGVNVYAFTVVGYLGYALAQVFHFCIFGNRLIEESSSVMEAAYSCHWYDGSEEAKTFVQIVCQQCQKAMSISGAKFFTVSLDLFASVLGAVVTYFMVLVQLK
Method: To assess the drought tolerance of the cell lines, the cells were dried according to the following protocol. 4×10^7 Pv11-GCaMP6f stable expression cell lines were centrifuged at 700 g for 3 minutes and the supernatant removed. The precipitated cells were suspended in a 600 mM trehalose mix of 600 mM trehalose and IPL-41 medium at a ratio of 9:1, transferred to a 2 ml flask, and incubated at 25° C. for 48 hours. After 48 hours, the obtained cells were centrifuged at 700 g for 3 minutes and the supernatant was removed. The sedimented cells were suspended in 400 μl of 600 mM trebalose mix, and 40 μl were dropped onto a 35 mm dish. […]
6. […] Using the Orco stable expression cell line and Orco-Or47a stable expression cell line, in order to assess the function of exogenous membrane proteins before drying and after 1 hour of rehydration after drying, fluorescence intensity generated in response to stimulation with VUAA1 (Orco agonist) or pentyl acetate (ligand of Or47a) was measured in the same manner as in 3.2 above.
The fluorescence intensity was digitized from the photograph, and ΔF/F was calculated according to the following formula:
Where the summation Σi=1^n is over the n cells in the image, Fi,after means the fluorescence intensity of the cell i after adding the ligand solution, and Fi,0 means the fluorescence intensity of the cell i before adding the ligand solution. […]

Orco-Or47a = target: T2, Orco-Or47a (Drosophila melanogaster, UniProt P81921+Q9VNB5); assay: Ligand assay using a perfusion system; type: cell-based; parameters: remnant residues; expressed in transfected cells; host or cells: Pv11 cells (Polypedilum vanderplanki), CRIS-PITCh knock-in at the Pv.00443 locus downstream of the 121 promoter, Zeocin selection and single-cell sorting; details: 1 mM pentyl acetate perfused 5 minutes at 1 mL/min; BAM-fixed cells
T2 sequence (Q9VNB5 1-486): T1 sequence (Q9VNB5 1-486)
T2 sequence (P81921 1-385): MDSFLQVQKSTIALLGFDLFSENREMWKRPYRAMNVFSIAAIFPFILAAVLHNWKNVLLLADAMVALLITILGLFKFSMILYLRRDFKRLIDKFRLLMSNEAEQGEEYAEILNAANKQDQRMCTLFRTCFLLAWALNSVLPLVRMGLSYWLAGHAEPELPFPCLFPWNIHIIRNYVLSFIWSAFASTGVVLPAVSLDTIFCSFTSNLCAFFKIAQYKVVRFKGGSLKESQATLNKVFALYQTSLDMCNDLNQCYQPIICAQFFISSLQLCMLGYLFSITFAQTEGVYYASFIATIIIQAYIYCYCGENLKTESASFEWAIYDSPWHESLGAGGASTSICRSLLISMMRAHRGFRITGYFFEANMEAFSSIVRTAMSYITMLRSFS
Method: 9.1 Ligand assay. A ligand assay was performed using a perfusion system using Orco-Or47a stable expression cell line and GCaMP6f stable expression cell line. […] The Orco-Or47a stable expression cell line and the GCaMP6f stable expression cell line were fixed with BAM as described in 8.1 above and perfused at a flow rate of 1 mL/min using a peristaltic pump (SJ-1211 II-L2, ATTO). The perfusion solution was ACSF buffer (125 mM NaCl, 5.6 mM KCl, 1.25 mM Na2HPO4, 10 mM HEPES, 1.5 mM CaCl2), pH7.4) as a standard solution. As a ligand for Or47a, pentyl acetate was diluted to a final concentration of 1 mM, and as a negative control, DMSO was diluted to 1% by mass. The standard solution was perfused, switched to 1 mM pentyl acetate solution or 1% by mass DMSO solution, and perfusion was performed for 5 minutes. Photographing of the cells was started after waiting for the 1 mM pentyl acetate solution or 1% by mass DMSO solution to reach the cells in about 60 seconds. Bright-field and fluorescence images of the perfused Pv11 cells were taken 30 times at 10-second intervals (LSM700, ZEISS). The method for obtaining ΔF/F0 was as described above. 25 cells were selected from the captured image, each produced ΔF/F0, and the response was maintained for about 4 minutes; from this it was confirmed that the present disclosure can be applied as an odor sensor capable of rapid odor determination.

| SMILES | fluorescence on stimulation (Orco) | time the response was maintained (Orco-Or47a) |
| --- | --- | --- |
| CCc1ccc(NC(=O)CSc2nnc(-c3cccnc3)n2CC)cc1 [VUAA1, N-(4-ethylphenyl)-2-{[4-ethyl-5-(pyridin-3-yl)-4H-1,2,4-triazol-3-yl]sulfanyl}acetamide] | fluorescence was observed | – |
| CCCCCOC(C)=O [pentyl acetate] | – | about 4 minutes |
